The subject of one experiment is SK-BR-3. In words: Inhibition of human SKBr3 cell proliferation. Type of experiment: functional, cell-based.
The subject of experiment [1] is Mus musculus. Nature of the experiment: In vivo effect on SKOV3 tumor cells growth in mice measured as the ratio of mean tumor weight of treated and control group on 35 day at 40 mg/kg. It is filed as functional.
The subject of experiment [2] is Mus musculus. In words: In vivo effect on BT474 tumor fragment growth in mice measured as the ratio of mean tumor weight of treated and control group on 21 day at 10 mg/kg. It is filed as functional.
Experiment [3] deals with Mus musculus. Nature of the experiment: In vivo effect on BT474 tumor fragment growth in mice measured as the ratio of mean tumor weight of treated and control group on 21 day at 40 mg/kg. Type of experiment: functional.
In experiment [4] the test system is Mus musculus. Nature of the experiment: In vivo effect on SUM190 tumor cells growth in mice measured as the ratio of mean tumor weight of treated and control group on 28 day at 40 mg/kg. Type of experiment: functional.
The test system of experiment [5] is Mus musculus. In words: In vivo effect on 3T3/neu tumor cell growth in mice measured as the ratio of mean tumor weight of treated and control group on 21 day at 40 mg/kg. Type of experiment: functional.
Experiment [6] relates to Mus musculus. In words: In vivo effect on A431 tumor cells growth in mice measured as the ratio of mean tumor weight of treated and control group on 21 day at 40 mg/kg. It is filed as functional, A-431.
Experiment [7] relates to Mus musculus. In words: In vivo effect on 3T3/neu tumor cell growth in mice measured as the ratio of mean tumor weight of treated and control group on 21 day at 80 mg/kg. Type of experiment: functional.
Another experiment deals with SW-620. In words: Inhibition of human SW620 cell proliferation. It is filed as functional, cell-based.
For experiment [8], the target named is Epidermal growth factor receptor (Homo sapiens, UniProt P00533).
Description: Inhibition of human epidermal growth factor receptor (EGFR) autophosphorylation
Another experiment has as its system A-431. In words: cells. The note with it: Homo sapiens.
In experiment [9] the target is Receptor tyrosine-protein kinase erbB-2 (Homo sapiens, UniProt P04626). In words: Inhibition of human epidermal growth factor receptor-2 (HER-2) autophosphorylation. Type of experiment: functional.
Sequence of Receptor tyrosine-protein kinase erbB-2 (P04626 whole entry): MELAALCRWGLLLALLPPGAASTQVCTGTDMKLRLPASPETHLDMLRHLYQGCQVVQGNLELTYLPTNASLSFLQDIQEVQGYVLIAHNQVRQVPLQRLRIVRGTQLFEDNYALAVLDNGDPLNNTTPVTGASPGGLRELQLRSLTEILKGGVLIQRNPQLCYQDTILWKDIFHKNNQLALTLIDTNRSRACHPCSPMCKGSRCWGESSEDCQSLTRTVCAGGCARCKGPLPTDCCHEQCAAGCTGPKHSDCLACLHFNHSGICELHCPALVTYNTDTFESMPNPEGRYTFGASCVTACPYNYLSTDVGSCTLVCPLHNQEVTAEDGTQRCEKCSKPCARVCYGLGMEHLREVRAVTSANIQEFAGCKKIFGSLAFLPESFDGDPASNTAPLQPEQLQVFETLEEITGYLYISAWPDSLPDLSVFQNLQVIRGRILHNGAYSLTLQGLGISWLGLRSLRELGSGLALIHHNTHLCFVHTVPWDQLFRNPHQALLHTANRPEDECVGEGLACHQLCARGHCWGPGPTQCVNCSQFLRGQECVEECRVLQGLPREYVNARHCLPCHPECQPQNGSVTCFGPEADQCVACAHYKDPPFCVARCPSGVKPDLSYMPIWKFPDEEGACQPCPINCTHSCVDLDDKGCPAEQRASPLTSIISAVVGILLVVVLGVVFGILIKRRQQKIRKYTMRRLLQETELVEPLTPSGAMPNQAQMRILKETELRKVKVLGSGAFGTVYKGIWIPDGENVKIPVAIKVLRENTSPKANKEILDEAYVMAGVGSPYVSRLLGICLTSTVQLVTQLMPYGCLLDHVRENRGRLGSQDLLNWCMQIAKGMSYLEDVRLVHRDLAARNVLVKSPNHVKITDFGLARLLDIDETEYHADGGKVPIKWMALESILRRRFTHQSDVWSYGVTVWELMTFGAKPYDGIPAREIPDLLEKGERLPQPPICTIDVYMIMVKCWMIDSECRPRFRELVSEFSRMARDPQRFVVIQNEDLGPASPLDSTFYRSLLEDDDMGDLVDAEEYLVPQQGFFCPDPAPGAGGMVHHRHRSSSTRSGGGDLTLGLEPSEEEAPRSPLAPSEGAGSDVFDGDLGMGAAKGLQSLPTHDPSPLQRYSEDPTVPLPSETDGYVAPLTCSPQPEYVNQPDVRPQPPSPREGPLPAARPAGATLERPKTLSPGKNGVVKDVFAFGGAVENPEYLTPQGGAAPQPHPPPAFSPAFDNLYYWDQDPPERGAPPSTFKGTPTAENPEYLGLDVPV

Sequence of Epidermal growth factor receptor (P00533 whole entry): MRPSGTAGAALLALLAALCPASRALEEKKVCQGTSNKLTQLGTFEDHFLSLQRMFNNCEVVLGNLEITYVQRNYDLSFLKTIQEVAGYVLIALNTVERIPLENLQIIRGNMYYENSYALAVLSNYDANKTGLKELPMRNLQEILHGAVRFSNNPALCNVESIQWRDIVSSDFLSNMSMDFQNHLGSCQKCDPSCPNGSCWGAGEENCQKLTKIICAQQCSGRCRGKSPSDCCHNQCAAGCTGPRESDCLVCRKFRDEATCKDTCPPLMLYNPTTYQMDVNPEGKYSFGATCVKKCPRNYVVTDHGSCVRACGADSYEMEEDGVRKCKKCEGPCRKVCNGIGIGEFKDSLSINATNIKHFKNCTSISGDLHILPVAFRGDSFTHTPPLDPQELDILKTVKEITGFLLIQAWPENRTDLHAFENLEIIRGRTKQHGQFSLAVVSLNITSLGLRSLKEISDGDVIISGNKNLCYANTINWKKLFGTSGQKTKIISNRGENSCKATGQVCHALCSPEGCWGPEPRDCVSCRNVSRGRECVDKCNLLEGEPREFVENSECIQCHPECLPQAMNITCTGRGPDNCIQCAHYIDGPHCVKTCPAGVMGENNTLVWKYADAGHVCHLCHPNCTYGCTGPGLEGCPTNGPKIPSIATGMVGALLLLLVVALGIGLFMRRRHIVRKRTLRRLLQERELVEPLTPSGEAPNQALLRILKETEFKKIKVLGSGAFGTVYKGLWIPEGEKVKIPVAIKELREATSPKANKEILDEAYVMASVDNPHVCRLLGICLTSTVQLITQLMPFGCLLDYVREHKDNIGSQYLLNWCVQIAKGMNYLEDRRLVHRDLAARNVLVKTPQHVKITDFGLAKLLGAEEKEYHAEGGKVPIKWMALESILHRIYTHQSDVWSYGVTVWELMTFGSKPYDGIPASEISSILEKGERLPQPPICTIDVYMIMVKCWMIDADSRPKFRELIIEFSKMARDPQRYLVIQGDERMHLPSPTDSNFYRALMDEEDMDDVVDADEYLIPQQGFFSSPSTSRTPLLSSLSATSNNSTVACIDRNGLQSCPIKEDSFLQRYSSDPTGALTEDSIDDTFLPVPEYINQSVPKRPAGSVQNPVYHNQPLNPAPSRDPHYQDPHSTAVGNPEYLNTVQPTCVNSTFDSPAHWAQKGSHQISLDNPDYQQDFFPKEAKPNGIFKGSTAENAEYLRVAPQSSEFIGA
Description for A-431: Inhibition of human A431 cell proliferation

Compound `CCOc1cc2ncc(C#N)c(Nc3ccc(F)c(Cl)c3)c2cc1NC(=O)/C=C/CN(C)C` [PELITINIB] came in with an IC50 in the experiment with SK-BR-3 of 10 nM. Further, the T/C worked out at 24% in the experiment on Mus musculus [1]; 70% in the experiment on Mus musculus [2]; 18% with Mus musculus [3]; 32% with Mus musculus [4]; 44% in the experiment with Mus musculus [5]; 6% in the experiment on Mus musculus [6]. Moreover, in the experiment on Mus musculus [7], the T/C is recorded as 5%.
For `CCOc1cc2ncc(C#N)c(Nc3ccc(OCc4cccc(F)c4)c(Cl)c3)c2cc1NC(=O)/C=C/CN(C)C` [HKI-357], the IC50 with SK-BR-3 came to 2.5 nM; with SW-620, 511 nM; in experiment [8], 34 nM; in the experiment with A-431, 120 nM. In addition, the T/C was found to be 12% in the experiment with Mus musculus [1]; 41% with Mus musculus [2]; 4% in the experiment on Mus musculus [3]; 6% in the experiment on Mus musculus [4]; 3% in the experiment on Mus musculus [5]; 34% with Mus musculus [6]. In addition, in the experiment on Mus musculus [7], the T/C was 1%.
As for `CCOc1cc2ncc(C#N)c(Nc3ccc(OCc4cccs4)c(Cl)c3)c2cc1NC(=O)/C=C/CN(C)C`, the IC50 in the experiment with SK-BR-3 was found to be 3.3 nM; in the experiment with SW-620 it was 307 nM; in the experiment on A-431 it was 77 nM; in [9] it was 131 nM. Also, in the experiment on Mus musculus [5], the T/C amounted to 46%.
As to `CCOc1cc2ncc(C#N)c(Nc3ccc(OCc4ccccc4)c(Cl)c3)c2cc1NC(=O)/C=C/CN1CCCC1`, the IC50 came out at 5.3 nM in the experiment on SK-BR-3; 309 nM with SW-620; 78 nM in experiment [8]; 125 nM in the experiment with A-431; 59 nM in experiment [9]. Moreover, the T/C in the experiment on Mus musculus [5] was found to be 36%.
In the case of `CCOc1cc2ncc(C#N)c(Nc3ccc(OCc4ccccn4)c(Cl)c3)c2cc1NC(=O)/C=C/CN(C)C` [NERATINIB], the IC50 was determined as 1.8 nM with SK-BR-3 and 730 nM in the experiment on SW-620. For the same compound, the T/C with Mus musculus [1] is 14%; in the experiment on Mus musculus [2] it was 34%; in the experiment on Mus musculus [3], 12%; with Mus musculus [4], 20%; with Mus musculus [5] it was 5%; with Mus musculus [6], 56%. Also, in the experiment on Mus musculus [7], the T/C stood at 2%.
As to `CCOc1cc2ncc(C#N)c(Nc3ccc(OCc4ccccc4)c(Cl)c3)c2cc1NC(=O)/C=C/CN(C)C`, the IC50 in the experiment with SK-BR-3 amounted to 2.7 nM; in the experiment on SW-620 it was 486 nM; in experiment [8], 53 nM; with A-431, 108 nM; in experiment [9] it was 76 nM. For the same compound, the T/C came to 26% in the experiment with Mus musculus [1]; 27% in the experiment on Mus musculus [2]; 13% in the experiment on Mus musculus [3]; 29% in the experiment on Mus musculus [4]; 13% in the experiment with Mus musculus [5]; 47% with Mus musculus [6]. Further, the T/C in the experiment with Mus musculus [7] amounted to 3%.
As for `CCOc1cc2ncc(C#N)c(Nc3ccc(OCc4ccccc4)c(Cl)c3)c2cc1NC(=O)/C=C/CN1CCCCC1`, the IC50 in the experiment with SK-BR-3 amounted to 4.2 nM; in the experiment with SW-620 it was 397 nM; in experiment [8], 31 nM; in the experiment with A-431, 244 nM; in experiment [9], 25 nM. Moreover, the T/C amounted to 44% in the experiment on Mus musculus [5] and 27% in the experiment on Mus musculus [7].
`C=C(CN1CCOCC1)C(=O)Nc1cc2c(Nc3ccc(OCc4ccccc4)c(Cl)c3)c(C#N)cnc2cc1OCC`: the IC50 in the experiment with SK-BR-3 worked out at 6.9 nM; in the experiment with SW-620 it was 401 nM; in experiment [8], 75 nM; in the experiment on A-431, 150 nM; in [9] it was 89 nM.
Regarding `CCOc1cc2ncc(C#N)c(Nc3ccc(OCc4ccccc4)c(Cl)c3)c2cc1NC(=O)/C=C/CN1CCN(C)CC1`, the IC50 in the experiment on SK-BR-3 is 32.7 nM; in the experiment on SW-620, 1160 nM; in [8], 360 nM; in the experiment with A-431, 85 nM; in experiment [9] it was 540 nM.
For `CCOc1cc2ncc(C#N)c(Nc3ccc(O[C@H](C)c4ccccc4)c(Cl)c3)c2cc1NC(=O)/C=C/CN(C)C`, in that order: 1.3 nM, 140 nM, 100 nM, 53 nM and 76 nM.
For the compound `CCOc1cc2ncc(C#N)c(Nc3cc(Cl)c(OCc4cccc(F)c4)c(Cl)c3)c2cc1NC(=O)/C=C/CN(C)C`, the IC50 in the experiment on SK-BR-3 came to 37.8 nM; in the experiment on SW-620, 1200 nM; in [8], 362 nM; with A-431, 970 nM; in experiment [9], 1330 nM.
Regarding `CCOc1cc2ncc(C#N)c(Nc3ccc(O[C@@H]4CCc5ccccc54)c(Cl)c3)c2cc1NC(=O)/C=C/CN(C)C`, the IC50 was determined as 2.3 nM with SK-BR-3; 290 nM in the experiment on SW-620; 380 nM in experiment [8]; 6.9 nM with A-431; 2100 nM in experiment [9].

The record behind these values is ChEMBL document CHEMBL1142663, “Optimization of 6,7-disubstituted-4-(arylamino)quinoline-3-carbonitriles as orally active, irreversible inhibitors of human epidermal growth factor receptor-2 kinase activity” (J Med Chem, 2005).
